Source: ChEMBL document CHEMBL1130625, “Synthesis and antibacterial activity of novel 7-(3-substituted-3 or 4-trifluoromethyl-1-pyrrolidinyl)-8-methoxyfluoroquinolones” (1998)

Tests used:
Escherichia coli [1] = assay: Compound was tested for antibacterial activity against gram negative Escherichia coli CSH2/RE45; format: functional; details: Escherichia coli; read-out: MIC
Streptococcus pyogenes = assay: Compound was tested for antibacterial activity against gram positive Streptococcus pyogenes cook; details: Streptococcus pyogenes; read-out: MIC
Pseudomonas aeruginosa [2] = assay: Compound was tested for antibacterial activity against gram negative Pseudomonas aeruginosa KP-254; format: functional; details: Pseudomonas aeruginosa; read-out: MIC
[3] = system: Acinetobacter calcoaceticus; assay: Compound was tested for antibacterial activity against gram negative Acinetobacter calcoaceticus No.4; format: functional; details: Acinetobacter calcoaceticus; read-out: MIC
Staphylococcus aureus [4] = assay: Compound was tested for antibacterial activity against gram positive Staphylococcus aureus FDA 209P JC-1; format: functional; details: Staphylococcus aureus; read-out: MIC
Staphylococcus aureus [5] = assay: Compound was tested for antibacterial activity against gram positive Staphylococcus aureus KP-90-3; format: functional; details: Staphylococcus aureus; read-out: MIC
Pseudomonas aeruginosa [6] = assay: Compound was tested for antibacterial activity against gram negative Pseudomonas aeruginosa AK109; format: functional; details: Pseudomonas aeruginosa; read-out: MIC
Citrobacter freundii [7] = assay: Compound was tested for antibacterial activity against gram negative Citrobacter freundii No.7; format: functional; details: Citrobacter freundii; read-out: MIC
Enterobacter cloacae = assay: Compound was tested for antibacterial activity against gram negative Enterobacter cloacae Nek39; format: functional; details: Enterobacter cloacae; read-out: MIC
Burkholderia cepacia = assay: Compound was tested for antibacterial activity against gram negative Burkholderia cepacia 23; format: functional; details: Burkholderia cepacia; read-out: MIC
Staphylococcus aureus [8] = assay: Compound was tested for antibacterial activity against gram positive Staphylococcus aureus smith; format: functional
Proteus mirabilis = assay: Compound was tested for antibacterial activity against gram negative Proteus mirabilis JY-10; format: functional; details: Proteus mirabilis; read-out: MIC
Proteus vulgaris [9] = assay: Compound was tested for antibacterial activity against gram negative Proteus vulgaris No.33; format: functional; details: Proteus vulgaris; read-out: MIC
Enterococcus faecalis = assay: Compound was tested for antibacterial activity against gram positive Enterococcus faecalis 1373; format: functional; details: Enterococcus faecalis; read-out: MIC
Escherichia coli [10] = assay: Compound was tested for antibacterial activity against gram negative Escherichia coli ML4707; format: functional; details: Escherichia coli; read-out: MIC
Klebsiella pneumoniae [11] = assay: Compound was tested for antibacterial activity against gram negative Klebsiella pneumoniae No.42; format: functional; details: Klebsiella pneumoniae; read-out: MIC
Proteus vulgaris [12] = assay: Compound was tested for antibacterial activity against gram negative Proteus vulgaris KS-134; format: functional; details: Proteus vulgaris; read-out: MIC
Staphylococcus aureus [13] = assay: Compound was tested for antibacterial activity against gram positive Staphylococcus aureus JS-1; format: functional; details: Staphylococcus aureus; read-out: MIC
Citrobacter freundii [14] = assay: Compound was tested for antibacterial activity against gram negative Citrobacter freundii KP-29; format: functional; details: Citrobacter freundii; read-out: MIC
Klebsiella oxytoca = assay: Compound was tested for antibacterial activity against gram negative Klebsiella oxytoca GN 10650; format: functional; details: Klebsiella oxytoca; read-out: MIC
Serratia marcescens = assay: Compound was tested for antibacterial activity against gram negative Serratia marcescens No.16-2; format: functional; details: Serratia marcescens; read-out: MIC
Klebsiella pneumoniae [15] = assay: Compound was tested for antibacterial activity against gram negative Klebsiella pneumoniae KC-1; format: functional; details: Klebsiella pneumoniae; read-out: MIC
Escherichia coli [16] = assay: Compound was tested for antibacterial activity against gram negative Escherichia coli CSH2/RK1; format: functional; details: Escherichia coli; read-out: MIC
Pseudomonas aeruginosa [17] = assay: Compound was tested for antibacterial activity against gram negative Pseudomonas aeruginosa PAO1; format: functional; details: Pseudomonas aeruginosa; read-out: MIC
Pseudomonas aeruginosa [18] = assay: Compound was tested for antibacterial activity against gram negative Pseudomonas aeruginosa K-13; format: functional; details: Pseudomonas aeruginosa; read-out: MIC
Escherichia coli [19] = assay: Compound was tested for antibacterial activity against gram negative Escherichia coli NIHJ JC-2; format: functional; details: Escherichia coli; read-out: MIC

Row | Compound | MIC (Escherichia coli [1]) [mg/L] | MIC (Streptococcus pyogenes) [mg/L] | MIC (Pseudomonas aeruginosa [2]) [mg/L] | MIC [3] [mg/L] | MIC (Staphylococcus aureus [4]) [mg/L] | MIC (Staphylococcus aureus [5]) [mg/L] | MIC (Pseudomonas aeruginosa [6]) [mg/L] | MIC (Citrobacter freundii [7]) [mg/L] | MIC (Enterobacter cloacae) [mg/L] | MIC (Burkholderia cepacia) [mg/L] | MIC (Staphylococcus aureus [8]) [mg/L] | MIC (Proteus mirabilis) [mg/L] | MIC (Proteus vulgaris [9]) [mg/L] | MIC (Enterococcus faecalis) [mg/L] | MIC (Escherichia coli [10]) [mg/L] | MIC (Klebsiella pneumoniae [11]) [mg/L] | MIC (Proteus vulgaris [12]) [mg/L] | MIC (Staphylococcus aureus [13]) [mg/L] | MIC (Citrobacter freundii [14]) [mg/L] | MIC (Klebsiella oxytoca) [mg/L] | also measured
1 | COc1c(N2C[C@@H](CN)[C@H](C)C2)c(F)cc2c(=O)c(C(=O)O)cn(C3CC3)c12.Cl | 0.39 | ≤ 0.006 | 100 | 0.2 | 0.013 | 0.2 | 0.78 | 0.39 | 0.39 | 1.56 | ≤ 0.006 | 0.05 | 0.1 | 0.05 | 0.025 | 0.1 | 50 | ≤ 0.006 | 12.5 | 0.1 | MIC (Serratia marcescens): 0.39 mg/L; MIC (Klebsiella pneumoniae [15]): 0.1 mg/L; MIC (Escherichia coli [16]): 0.39 mg/L; MIC (Pseudomonas aeruginosa [17]): 0.78 mg/L; MIC (Pseudomonas aeruginosa [18]): 6.25 mg/L; MIC (Escherichia coli [19]): 0.05 mg/L
2 | COc1c(N2C[C@@H](N)[C@H](C(F)(F)F)C2)c(F)cc2c(=O)c(C(=O)O)cn(C3CC3)c12.O=C(O)C(F)(F)F | 3.13 | 0.39 | > 100 | 0.2 | 0.1 | 3.13 | 6.25 | 3.13 | 3.13 | 1.56 | 0.05 | 0.2 | 0.39 | 0.39 | 0.05 | 0.39 | 100 | 0.05 | 100 | 0.39 | MIC (Serratia marcescens): 3.13 mg/L; MIC (Klebsiella pneumoniae [15]): 0.39 mg/L; MIC (Escherichia coli [16]): 3.13 mg/L; MIC (Pseudomonas aeruginosa [17]): 3.13 mg/L; MIC (Pseudomonas aeruginosa [18]): 25 mg/L; MIC (Escherichia coli [19]): 0.39 mg/L
3 | COc1c(N2CC[C@@](N)(C(F)(F)F)C2)c(F)cc2c(=O)c(C(=O)O)cn(C3CC3)c12.Cl | 3.13 | 0.1 | > 100 | 0.2 | 0.05 | 1.56 | 6.25 | 3.13 | 1.56 | 1.56 | ≤ 0.006 | 0.2 | 0.39 | 0.2 | ≤ 0.006 | 0.39 | 100 | 0.025 | 100 | 0.39 | MIC (Serratia marcescens): 3.13 mg/L; MIC (Klebsiella pneumoniae [15]): 0.2 mg/L; MIC (Escherichia coli [16]): 3.13 mg/L; MIC (Pseudomonas aeruginosa [17]): 6.25 mg/L; MIC (Pseudomonas aeruginosa [18]): 25 mg/L; MIC (Escherichia coli [19]): 0.39 mg/L
